From PubChem BioAssay AID248 (DTP/NCI, 2004)
Inconclusive results and toxic doses are left out. No stated cut-off is given here; in the data, active means T/C of 150% or more; inactive means T/C below 125%.

System: L1210 leukemia ip in BDF1 mice, survival T/C
Experiment: NCI In Vivo Anticancer Drug Screen. Data for tumor model L1210 Leukemia (intraperitoneal) in B6D2F1 (BDF1) mice
Conditions: endpoint: mean survival time, higher = longer survival
Outline: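 Survival endpoint. Drug-treated group vs vehicle group, expressed as T divided by C. Tumor passaged by transplantation.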

[1] = dose: 100.0 mg/kg/injection, schedule: Q01DX009 (ip), vehicle: saline with Tween-80
[2] = dose: 100.0 mg/kg/injection, schedule: Q04DX003 (ip), vehicle: saline with Tween-80
[3] = dose: 200.0 mg/kg/injection, schedule: Q01DX009 (ip), vehicle: saline with Tween-80
[4] = dose: 200.0 mg/kg/injection, schedule: Q04DX003 (ip), vehicle: saline with Tween-80
[5] = dose: 400.0 mg/kg/injection, schedule: Q01DX009 (ip), vehicle: saline with Tween-80
[6] = dose: 400.0 mg/kg/injection, schedule: Q04DX003 (ip), vehicle: saline with Tween-80
[7] = dose: 100.0 mg/kg/injection, schedule: Q04DX002 (ip), vehicle: Klucel (hydroxypropylcellulose) (HPC)
[8] = dose: 100.0 mg/kg/injection, schedule: Q01DX001 (ip), vehicle: saline
[9] = dose: 200.0 mg/kg/injection, schedule: Q01DX001 (ip), vehicle: saline
[10] = dose: 400.0 mg/kg/injection, schedule: Q01DX001 (ip), vehicle: saline
[11] = dose: 75.0 mg/kg/injection, schedule: Q01DX001 (ip), vehicle: saline
[12] = dose: 150.0 mg/kg/injection, schedule: Q01DX001 (ip), vehicle: saline
[13] = dose: 300.0 mg/kg/injection, schedule: Q01DX001 (ip), vehicle: saline
[14] = dose: 100.0 mg/kg/injection, schedule: Q01DX009 (ip), vehicle: Klucel (hydroxypropylcellulose) (HPC)
[15] = dose: 200.0 mg/kg/injection, schedule: Q01DX009 (ip), vehicle: Klucel (hydroxypropylcellulose) (HPC)
[16] = dose: 400.0 mg/kg/injection, schedule: Q01DX009 (ip), vehicle: Klucel (hydroxypropylcellulose) (HPC)
[17] = dose: 100.0 mg/kg/injection, schedule: Q01DX001 (ip), vehicle: carboxymethylcellulose (CMC)
[18] = dose: 200.0 mg/kg/injection, schedule: Q01DX001 (ip), vehicle: carboxymethylcellulose (CMC)
[19] = dose: 400.0 mg/kg/injection, schedule: Q01DX001 (ip), vehicle: carboxymethylcellulose (CMC)
[20] = dose: 50.0 mg/kg/injection, schedule: Q01DX001 (ip), vehicle: carboxymethylcellulose (CMC)
[21] = dose: 100.0 mg/kg/injection, schedule: Q04DX003 (ip), vehicle: Klucel (hydroxypropylcellulose) (HPC)
[22] = dose: 200.0 mg/kg/injection, schedule: Q04DX003 (ip), vehicle: Klucel (hydroxypropylcellulose) (HPC)
[23] = dose: 400.0 mg/kg/injection, schedule: Q04DX003 (ip), vehicle: Klucel (hydroxypropylcellulose) (HPC)

Measured: T/C

O=C(c1ccccc1)c1cc2ccccc2oc1=O
inactive: dose: 100.0 mg/kg/injection, schedule: Q01DX001 (ip), vehicle: Klucel (hydroxypropylcellulose) (HPC) 103 % of control | dose: 200.0 mg/kg/injection, schedule: Q01DX001 (ip), vehicle: Klucel (hydroxypropylcellulose) (HPC) 98 % of control | dose: 400.0 mg/kg/injection, schedule: Q01DX001 (ip), vehicle: Klucel (hydroxypropylcellulose) (HPC) 90 % of control

COc1ccc(Sc2cccc3c2C(C)(O)c2c(Sc4ccc(OC)cc4)cccc2C3(C)O)cc1 (centres undefined)
inactive: [1] 100 % of control | [2] 97 % of control | [3] 92 % of control | [4] 95 % of control | [5] 92 % of control | [6] 93 % of control

CONS(=O)c1ccc(Cl)cc1 (centres undefined)
inactive: [7] 96 % of control | dose: 200.0 mg/kg/injection, schedule: Q04DX002 (ip), vehicle: Klucel (hydroxypropylcellulose) (HPC) 92 % of control | dose: 400.0 mg/kg/injection, schedule: Q04DX002 (ip), vehicle: Klucel (hydroxypropylcellulose) (HPC) 108 % of control

CCCCCCCCC[n+]1cccc(C(N)=O)c1
inactive: [2] 106 % of control

COc1cc(/C=N\N=C\c2cc(OC)c(OC)c(OC)c2)cc(OC)c1OC
inactive: [1] 96 % of control | [2] 97 % of control | [3] 96 % of control | [4] 92 % of control | [5] 92 % of control | [6] 92 % of control

CC(=O)NC1CCC(CCC2CCCCC2)CC1 (centres undefined)
inactive: dose: 100.0 mg/kg/injection, schedule: Q04DX002 (ip), vehicle: saline with Tween-80 98 % of control | dose: 200.0 mg/kg/injection, schedule: Q04DX002 (ip), vehicle: saline with Tween-80 94 % of control | dose: 400.0 mg/kg/injection, schedule: Q04DX002 (ip), vehicle: saline with Tween-80 98 % of control

CCCCCCc1cc2ccccc2cc1CCCC
inactive: [8] 102 % of control | [9] 100 % of control | [10] 97 % of control

CCC(COC(=O)c1ccccc1)NC1CCCC1 (centres undefined)
inactive: [11] 102 % of control | [12] 103 % of control | [13] 111 % of control

O=S(=O)(NCCNS(=O)(=O)c1ccccc1)c1ccccc1
inactive: [1] 96 % of control | [3] 94 % of control | [5] 95 % of control

CC1=NC(C)CNC(C)(C)CC(C)=NC(C)CNC(C)(C)C1 (centres undefined)
inactive: dose: 25.0 mg/kg/injection, schedule: Q04DX002 (ip), vehicle: Klucel (hydroxypropylcellulose) (HPC) 88 % of control | dose: 50.0 mg/kg/injection, schedule: Q04DX002 (ip), vehicle: Klucel (hydroxypropylcellulose) (HPC) 94 % of control | [7] 112 % of control

Cc1cccc(Cl)c1NC(=S)NCc1ccco1
inactive: [14] 98 % of control | [15] 98 % of control | [16] 102 % of control

Cc1c(Cl)ccc2c(C(=O)NN)cc(-c3ccc(Cl)cc3)nc12
inactive: dose: 100.0 mg/kg/injection, schedule: Q01DX001 (ip), vehicle: saline with Tween-80 92 % of control | dose: 200.0 mg/kg/injection, schedule: Q01DX001 (ip), vehicle: saline with Tween-80 97 % of control | dose: 400.0 mg/kg/injection, schedule: Q01DX001 (ip), vehicle: saline with Tween-80 97 % of control

CCOC(=O)N(O)c1ccc(/C=C/c2ccccc2)cc1
inactive: [17] 98 % of control | [18] 93 % of control | [19] 98 % of control

CC(=O)NC(C)(C)Cc1ccccc1
inactive: [20] 89 % of control | [17] 94 % of control | [1] 111 % of control | [3] 101 % of control | [19] 94 % of control | [5] 86 % of control

COc1cc(/C=C/C(=O)O)cc(Br)c1O
inactive: [21] 104 % of control | [22] 101 % of control | [23] 103 % of control

O=C1NCC(Nc2ccc(Br)cc2Cl)C(=O)N1 (centres undefined)
inactive: dose: 100.0 mg/kg/injection, schedule: Q01DX Z (ip), vehicle: methylcellulose (MC) 96 % of control | dose: 200.0 mg/kg/injection, schedule: Q01DX Z (ip), vehicle: methylcellulose (MC) 90 % of control

CCN(CC)c1ccc(Cc2ccc3c(c2O)C(=O)c2c(O)cccc2C3=O)cc1
inactive: dose: 100.0 mg/kg/injection, schedule: Q01DX009 (ip), vehicle: saline 94 % of control | dose: 100.0 mg/kg/injection, schedule: Q04DX002 (ip), vehicle: saline 101 % of control | dose: 200.0 mg/kg/injection, schedule: Q01DX009 (ip), vehicle: saline 96 % of control | dose: 200.0 mg/kg/injection, schedule: Q04DX002 (ip), vehicle: saline 92 % of control | dose: 400.0 mg/kg/injection, schedule: Q01DX009 (ip), vehicle: saline 97 % of control | dose: 400.0 mg/kg/injection, schedule: Q04DX002 (ip), vehicle: saline 89 % of control

NC(=O)C1C(=O)OC2(CCCCC2)C1c1ccccc1 (centres undefined)
inactive: [8] 89 % of control | [9] 87 % of control | [10] 94 % of control

C[N+]1(CCCNC2=CC(=O)C(NCCC[N+]3(C)CCCCC3)=CC2=O)CCCCC1
inactive: dose: 0.5 mg/kg/injection, schedule: Q01DX001 (ip), vehicle: saline 105 % of control

CCOC(=O)c1ccc(S(=O)(=O)N(CC)CC)cc1
inactive: [20] 89 % of control | [17] 96 % of control | [18] 91 % of control | [19] 102 % of control

c1ccc2c(c1)CCCc1cn[nH]c1-2
inactive: [8] 98 % of control | [9] 95 % of control

COc1cccc(NC(=S)/C(=C(/[O-])c2ccc([N+](=O)[O-])cc2)[n+]2ccccc2)c1
inactive: [14] 97 % of control | [15] 98 % of control | [16] 94 % of control

O=C1c2cc(Cl)cc(Cl)c2-c2c1cc(Cl)cc2[N+](=O)[O-]
inactive: [14] 97 % of control | [21] 97 % of control | [15] 95 % of control | [22] 97 % of control | [16] 97 % of control | [23] 92 % of control

CC(Oc1cc(Cl)c(Cl)cc1Cl)C(=O)ON(C)C (centres undefined)
inactive: [14] 100 % of control | [15] 100 % of control

CC(=O)c1ccc2c(c1)-c1ccccc1C(=O)C2=O
inactive: [2] 89 % of control | [4] 94 % of control | [6] 91 % of control

CC1(c2ccncc2)OCCO1
inactive: [8] 97 % of control | [9] 101 % of control

O=C(NCN1C(=O)c2ccccc2C1=O)NCN1C(=O)c2ccccc2C1=O
inactive: [14] 95 % of control | [15] 102 % of control | [16] 92 % of control

O=C(Nc1cccc([N+](=O)[O-])c1)c1ccc(Cl)cc1
inactive: dose: 100.0 mg/kg/injection, schedule: Q04DX003 (ip), vehicle: gum acacia 101 % of control | dose: 200.0 mg/kg/injection, schedule: Q04DX003 (ip), vehicle: gum acacia 95 % of control | dose: 400.0 mg/kg/injection, schedule: Q04DX003 (ip), vehicle: gum acacia 101 % of control

OC1c2cc(Cl)cc(Cl)c2-c2c(Cl)cc(Cl)cc21
inactive: dose: 100.0 mg/kg/injection, schedule: Q04DX003 (ip), vehicle: saline 96 % of control | dose: 200.0 mg/kg/injection, schedule: Q04DX003 (ip), vehicle: saline 98 % of control | dose: 400.0 mg/kg/injection, schedule: Q04DX003 (ip), vehicle: saline 106 % of control

Oc1c(CN2CCCC2)cc(Nc2nc(/C=C/c3ccc(Cl)cc3)nc(Cl)c2-c2ccc(Cl)cc2)cc1CN1CCCC1
inactive: [11] 96 % of control | dose: 75.0 mg/kg/injection, schedule: Q04DX003 (ip), vehicle: Klucel (hydroxypropylcellulose) (HPC) 98 % of control | [12] 96 % of control | dose: 150.0 mg/kg/injection, schedule: Q04DX003 (ip), vehicle: Klucel (hydroxypropylcellulose) (HPC) 91 % of control | [13] 93 % of control | dose: 300.0 mg/kg/injection, schedule: Q04DX003 (ip), vehicle: Klucel (hydroxypropylcellulose) (HPC) 91 % of control

COC(=O)CCNCCSC(=O)c1ccccc1
inactive: dose: 100.0 mg/kg/injection, schedule: Q04DX003 (ip), vehicle: acetone 103 % of control | dose: 200.0 mg/kg/injection, schedule: Q04DX003 (ip), vehicle: acetone 105 % of control | dose: 400.0 mg/kg/injection, schedule: Q04DX003 (ip), vehicle: acetone 102 % of control
